The values that follow come from US9393250B2, “Phthalocyanine compounds useful as RecA inhibitors and methods of using same” (University of Saskatchewan, priority 2012, dated 2016).

Structures can show the parent of a compound that is named as a salt.

For one assay, the target named is DltA (Bacillus cereus, UniProt Q81G39). Nature of the assay: DltA control for specificity of ATPase inhibition. Type of assay: biochemical. Conditions: DltA assayed in the presence of 3,4-Cu-PcTs.
The next assay has as its system E. coli strain ATCC25922. Put plainly: Antibiotic sensitivity assay (CFUs/ml), E. coli. Conditions: for decrease in CFUs relative to ciprofloxacin treatment alone: compound 25 μM + ciprofloxacin 40 nM. Type of assay: cell-based, Escherichia coli. As for the experimental part: (§1) Bacterial cultures were diluted to 10^5 cells/mL in LB broth (ATCC25922) or MH broth (ATCC27853, ATCC29212, ATCC29213). Antibiotics and/or phthalocyanines were added at indicated concentrations and the culture was incubated at 37° C. Samples were collected at 0, 24, 48, and 72 hours and plated on LB agar (ATCC25922) or tryptic soy blood agar (ATCC27853, ATCC29212, ATCC29213) to determine CFUs/ml.
The ability of 4,4-Fe-PcTs and 3,4-Cu-PcTs to potentiate the activity of ciprofloxacin (abbreviated “CFX”) was tested. Ciprofloxacin inhibits DNA gyrase in bacteria, causing accumulation of double-stranded DNA breaks (DSBs) and inducing the SOS response. The inventors characterized the ability of 4,4-Fe-PcTs and 3,4-Cu-PcTs to potentiate the activity of ciprofloxacin in the pathogenic E. coli strain ATCC25922, which was used previously by Cirz et al. to evaluate the role of SOS response proteins in antibiotic resistance.

Assay [1] addresses T1, EcRecA (Escherichia coli, UniProt P0A7G6). The settings on record: gel shift; 0, 10, 100 μM. As for the experimental part:
EcRecA (4 μM), a 1.0-kb double-stranded DNA (dsDNA) PCR product (12 μM in base pairs), and indicated concentrations of 4,4-Fe-PcTs or 3,4-Cu-PcTs were incubated in binding buffer (5 mM MgAc2, 50 mM Tris-Hepes at pH 7.6) for 10 minutes at 37° C. EcRecA bound (slower migrating) and unbound dsDNA were resolved using a 1.0% agarose gel. The gel was stained with ethidium bromide and the fluorescence emission in the gel was recorded using a Kodak GelLogic 200 system.

The target of assay [2] is T1, EcRecA. Conditions: in presence of ATPγS. On the procedure:
EcRecA (5 μM) was incubated with indicated concentrations of 4,4-Fe-PcTs or 3,4-Cu-PcTs in strand exchange buffer (2 mM ATP-γ-S(Sigma-Aldrich), 10 mM MgAc2, 100 mM KAc, 50 mM Hepes-Tris buffer at pH 7.6, 0.1% v/v 2-mercaptoethanol) for 10 minutes at 37° C. FAM43 (0.35 μM) was added and the reaction was incubated for 2 minutes. The reaction was started by the addition of 0.35 μM of the dsDNA substrate (annealing product of equimolar oligonucleotides 45A and 55A). The reaction was stopped at 30 minutes by adding EDTA to a final concentration of 20 mM and trypsin to a final concentration of 1 μg/μl. After 10 minutes, 10 μl of the reaction was mixed with 5 μl of loading buffer (30% glycerol and 0.1% bromophenol blue) and products were resolved using a 20% native acrylamide gel. The fluorescence emission in the gel was recorded using a Kodak GelLogic 200 system.

The next assay has as its target EcRecA / EcLexA (Escherichia coli, UniProt P0A7G6). Conditions: in presence of ATPγS. As for the experimental part: The LexA cleavage reaction (10 μl) contained 1 μM poly-(dT)45, 2 μM EcRecA, 10 μM EcLexA, 0.1 mM ATP-γ-S, 20 mM MgAc2, 50 mM Hepes-Tris at pH 7.6 and indicated concentrations of 4,4-Fe-PcTs or 3,4-Cu-PcTs. The reaction was incubated for 120 minutes at 21° C. and stopped by the addition of 5 μl of loading buffer (30% glycerol, 10% SDS, 0.2 M Tris-HCl at pH 6.8, 0.1% v/v 2-mercaptoethanol and 0.1% w/v bromophenol blue). The products were resolved using a 13% SDS-polyacrylamide gel. The proteins were stained with Coomassie Blue-R250.

Assay [3] deals with T2, RecA (Escherichia coli, UniProt P0A7G6). As for the experimental part:
RecA (5 μM) and 3,4-Cu-PcTs (50 μM) were incubated in 0.15 M NaCl and 0.05 M Tris-HCl buffer at pH 7.4. The protein complexes were resolved by loading 2 ml of RecA/3,4-Cu-PcTs on a Pharmacia sephacryl S-300 column pre-equilibrated with the running buffer. The size exclusion column was calibrated with standard proteins with molecular weights of 35, 67, and 167 KD. Elution of proteins off the size exclusion column was monitored using absorbance at 280 nm.
Target sequence in this assay (P0A7G6 whole entry): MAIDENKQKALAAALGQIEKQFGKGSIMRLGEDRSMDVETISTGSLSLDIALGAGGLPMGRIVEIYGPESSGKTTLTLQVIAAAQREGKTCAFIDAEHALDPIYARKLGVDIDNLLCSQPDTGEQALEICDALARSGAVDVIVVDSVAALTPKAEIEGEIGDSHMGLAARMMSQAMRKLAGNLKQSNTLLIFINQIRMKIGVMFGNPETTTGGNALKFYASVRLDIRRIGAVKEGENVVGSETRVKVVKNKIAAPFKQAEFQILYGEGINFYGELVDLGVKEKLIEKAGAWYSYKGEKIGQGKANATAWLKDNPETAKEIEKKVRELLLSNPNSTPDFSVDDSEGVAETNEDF

Assay [4] concerns the target T1, EcRecA. The settings on record: compound 10 μM; poly-(dT)36-stimulated; relative to reaction without inhibitor.
Protocol: An ATPase assay [18] was used to screen a set of commercially available anionic, aromatic molecules for inhibitors of RecA ATPase activity. The release of inorganic phosphate by ATP hydrolysis was monitored using a Malachite Green phosphate assay [18]. The ssDNA-dependent ATPase reaction contained 1 μM EcRecA, 6 μM ssDNA (poly-(dT)36, concentration in nucleotides), 5 mM ATP, 50 mM Tris-Hepes buffer at pH 7.4, 10 mM MgCl2, 0.1% v/v 2-mercaptoethanol, and indicated amounts of 4,4-Fe-PcTs or 3,4-Cu-PcTs. Phosphate levels were measured by transferring 25 μl of ATPase reaction to 475 μl of malachite green phosphate assay, which contained 0.033% w/v Malachite Green, 1.3% w/v ammonium molybdate. 1.0 M HCl was used to monitor the release of inorganic phosphate by ATP hydrolysis [18]. The green complex formed between Malachite Green, molybdate, and free orthophosphate was measured by recording the absorbance at 620 nm.
Results are the average of two independent experiments where the deviation was less than 10%.
Assay [5] has as its target T1, EcRecA. Conditions: gel shift; 0, 10, 100 μM. This is another data set of the same source.
Assay [6] addresses T2, RecA. Conditions: 3,4-Cu-PcTs 3.75 μM; RecA 3.5 μM; AMPPNP.
Target sequence in this assay (P0A7G6 2-353): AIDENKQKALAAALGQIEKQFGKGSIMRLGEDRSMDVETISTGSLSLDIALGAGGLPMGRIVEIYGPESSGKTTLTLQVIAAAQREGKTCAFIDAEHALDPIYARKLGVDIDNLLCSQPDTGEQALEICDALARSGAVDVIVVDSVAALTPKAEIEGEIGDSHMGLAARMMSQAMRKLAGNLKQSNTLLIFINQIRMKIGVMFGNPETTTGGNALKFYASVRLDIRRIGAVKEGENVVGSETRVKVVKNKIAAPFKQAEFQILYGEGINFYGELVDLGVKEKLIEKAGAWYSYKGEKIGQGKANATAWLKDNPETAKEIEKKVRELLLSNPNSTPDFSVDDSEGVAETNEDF
Protocol: RecA-dsDNA-AMPPNP complexes formed by incubating RecA (3.5 μM), calf thymus dsDNA (Sigma) at a 40 dsDNA:1 RecA ratio (w/w), AMP-PNP (adenosine 5′-(β,γ-imido)triphosphate) (Sigma) (1.3 mM), MgAc2 (Sigma) (2 mM), triethanolamine-HCl (Fisher) buffer (25 mM, pH 7.2) with or without 3,4-Cu-PcTs (3.75 μM) at 37° C. for 10 minutes. Samples were applied to carbon-coated grids and stained with 2% uranyl acetate (w/v). Images were recorded on film with a Tecnai 12 electron microscope operating at 80 keV with a nominal magnification of 30,000×. Negatives were scanned with a Nikon Coolscan 8000 densitometer at a raster of 4.2 Å/pixel.
The test system of assay [7] is Pseudomonas aeruginosa ATCC27853. Put plainly: Antibiotic sensitivity assay (CFUs/ml), P. aeruginosa. Type of assay: cell-based. Conditions: ciprofloxacin 6.5 μM. On the procedure:
as §1
To confirm that the activity of 4,4-Fe-PcTs was not specific to the gram-negative ATCC25922 E. coli, the ability of 4,4-Fe-PcTs to potentiate the activity of ciprofloxacin in another gram-negative (Pseudomonas aeruginosa ATCC27853) strain and two gram-positive (Staphylococcus aureus ATCC29213 and Enterococcus faecalis ATCC29212) strains was evaluated.

The next assay deals with ATCC25922 E. coli. Put plainly: Ciprofloxacin resistance assay and reconstruction assay (in vitro mutagenesis). The assay is classed as cell-based, Escherichia coli.
In a further assay the test system is ATCC25922 cells. Put plainly: Neutropenic murine bacterial thigh infection model. The settings on record: mice treated only with ciprofloxacin 1 mg/kg s.c.; after 72 hours of infection. Type of assay: in vivo, Escherichia coli. As for the experimental part:
Six-eight week-old, specific-pathogen-free, female CD-1 mice (weight, 25-35 g) were rendered neutropenic by intraperitoneal injection with 150 mg/kg cylcophosphamide (Sigma) four days before infection and 100 mg/kg cyclophosphamide 24 hours before infection. LB broth cultures inoculated from fresh ATCC25922 colonies and cells were grown to the log phase (OD600 of approximately 0.3) and diluted 1:1000 in LB broth. Thigh infections were produced by injecting 50 μl (approximately 10^6 CFUs) of diluted cultures into halothane-anesthetized mice. One group of mice was administrated inteperitoneal injection of 4,4-Fe-PcTs in conjunction with the second dose of cyclophosphamide (24 hours prior infection) (4,4-Fe-PcTs (pre)+CFX). Starting two hours after infection (defined as time zero), mice were administered subcutaneous injections of either 1 mg/kg ciprofloxacin alone (CFX) or co-treatment of 1 mg/kg ciprofloxacin with interperitoneal injection of 10 mg/kg 4,4-Fe-PcTs (4,4-Fe-PcTs+CFX and 4,4-Fe-PcTs (pre)+CFX) every 24 hours for 3 days. After 48 and 72 hours, three mice from each group were sacrificed, and their thighs removed and homogenized to determine the number of viable bacterial cells for both ciprofloxacin-sensitive and ciprofloxacin-resistant ATCC25922 cells. Serial dilutions of homogenates of the infected thigh were plated on LB agar (CFX Sensitive) and LB agar plates containing ciprofloxacin (40 nM) (CFX Resistant) to count viable cells for each of the three treatment groups.

The subject of assay [8] is SOS response (E. coli strain SS996). Put plainly: SOS induction, GFP regulated by the sulA SOS promoter, flow cytometry. Conditions: KAN 43 μM, CAM 46 μM, TET 21 μM, SPECT 808 μM; three hours. The assay is classed as cell-based, Escherichia coli. As for the experimental part: To confirm that the bactericidal antibiotic potentiating activity of 4,4-Fe-PcTs was correlated with reduced SOS induction, SOS induction in the E. coli strain SS996 was monitored. This strain contains a green fluorescent protein (GFP) regulated by the sulA SOS promoter.
SS996 cultures were grown to an optical density at 600 nm (OD600) of 0.3. For cultures treated with 4,4-Fe-PcTs, the 4,4-Fe-PcTs was added to give a concentration of 25 μM and the culture was incubated for three hours at 37° C. Antibiotics were then added to yield concentrations of 2.5 μM (CFX), 40 μM (AMP), 43 μM (KAN), 21 μM (TET), 46 μM (CAM), or 808 μM (SPECT). Samples (˜10^6 cells) were taken immediately before the addition of antibiotics (time zero) and every hour for three hours. Samples were washed once in PBS, and resuspended in PBS prior to analysis by flow cytometry. GFP expression was monitored using flow cytometer (Beckman Coulter, Inc.) with a 488 nm argon laser and a 515-545 nm emission. Flow cytometry data were analyzed using Flowjo (Tree Star, Inc.).

A further assay has as its target MvRadA (Methanococcus voltae, UniProt O73948). Conditions: cited from earlier work.
Assay [9] deals with T2, RecA. The settings on record: cited from earlier work.
Target sequence in this assay (P0A7G6 2-353): as above
The test system of assay [10] is bacteria / ΔrecA bacterial strain. Conditions: cited from earlier work.

T1 sequence (P0A7G6 whole entry): as the sequence (P0A7G6 whole entry) above
Chain of EcRecA / EcLexA (P0A7G6 whole entry): as above
Chain of MvRadA (O73948 whole entry): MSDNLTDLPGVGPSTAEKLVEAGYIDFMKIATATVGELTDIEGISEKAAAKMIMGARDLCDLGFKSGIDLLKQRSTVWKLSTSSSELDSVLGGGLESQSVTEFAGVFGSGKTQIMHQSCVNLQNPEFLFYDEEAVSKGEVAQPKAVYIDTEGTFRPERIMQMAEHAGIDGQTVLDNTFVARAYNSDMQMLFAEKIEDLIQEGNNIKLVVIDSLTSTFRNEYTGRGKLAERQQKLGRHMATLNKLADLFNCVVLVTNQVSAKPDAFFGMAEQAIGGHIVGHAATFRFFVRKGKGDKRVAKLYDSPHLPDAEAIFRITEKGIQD
Chain of DltA (Q81G39 whole entry): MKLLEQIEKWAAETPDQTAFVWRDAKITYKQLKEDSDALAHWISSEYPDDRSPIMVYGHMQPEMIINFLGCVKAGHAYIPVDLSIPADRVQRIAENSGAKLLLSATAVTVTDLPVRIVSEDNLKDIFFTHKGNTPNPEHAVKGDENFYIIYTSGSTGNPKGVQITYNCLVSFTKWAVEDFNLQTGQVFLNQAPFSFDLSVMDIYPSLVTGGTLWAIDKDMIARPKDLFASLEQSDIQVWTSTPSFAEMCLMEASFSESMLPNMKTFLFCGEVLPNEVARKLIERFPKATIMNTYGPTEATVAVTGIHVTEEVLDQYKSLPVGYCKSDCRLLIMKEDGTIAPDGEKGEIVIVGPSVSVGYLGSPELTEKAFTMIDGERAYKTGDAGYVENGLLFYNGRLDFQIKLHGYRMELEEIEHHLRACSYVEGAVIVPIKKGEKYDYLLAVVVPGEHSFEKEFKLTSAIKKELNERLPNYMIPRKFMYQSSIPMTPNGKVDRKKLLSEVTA
Protocol for ATCC25922 E. coli: An in vitro mutagenesis assay [1] was used to measure the ability of 4,4-Fe-PcTs to block the acquisition of ciprofloxacin-induced resistance in ATCC25922 E. coli. ATCC25922 cells were plated on media containing ciprofloxacin in the presence or absence of 4,4-Fe-PcTs and cultured for 10 days. Colonies that appeared early in the assay (days 1 and 2) are believed to arise from pre-existing ciprofloxacin resistance mutations [1]. Colonies that appear later in the incubation (days 3 to 8) are due to ciprofloxacin resistance mutations acquired during exposure to ciprofloxacin or pre-existing mutations with a slow growth phenotype [1].
To distinguish between these two types of mutants, a reconstruction assay that tests for the time it takes for colonies to appear in the presence of ciprofloxacin was used. Colonies that appear at least two days faster than they appeared in the original ciprofloxacin mutagenesis screen were classified as colonies that acquire resistance after exposure to ciprofloxacin [1]. Colonies that appeared in the same number of days as in the ciprofloxacin resistance assay were classified as colonies with pre-existing mutations [1].
Twenty-five independent colonies of ATCC2592 were used to inoculate 25 LB broth cultures that were incubated at 37° C. for 25 hours. Viable cell counts in these cultures were determined by plating serial dilutions onto LB agar plates. One hundred microliters from each culture (˜10^8 cells) were plated in duplicate on LB agar containing ciprofloxacin (CFX) (40 nM) or ciprofloxacin (40 nM) and 4,4-Fe-PcTs (25 μM) (CFX+4,4-Fe-PcTs). Three additional 100 μL aliquots from three cultures were also plated on the same media to determine the number of viable cells per day. At 24 hour intervals, visible colonies were counted, removed from the plate, and stored at −80° C. for later use in the reconstruction assay and sequencing. Every 24 hours, in parallel with the resistance assay, small plugs of agar between visible colonies were excised from resistance assay plates. Agar plugs were homogenized in M9 buffer. Dilutions were plated in duplicate on LB plates to determine the total number of viable cells per day. The cells were also plated on LB containing CFX (40 nM) to determine if any CFX-resistant colonies remained after excision [1].
Reconstruction assays were used to determine whether ciprofloxacin resistant colonies were due to post-exposure mutation or due to mutation prior to ciprofloxacin exposure. Ciprofloxacin resistant clones isolated from the resistance assay were grown to saturation in LB media in 96 well plates. Cultures were then replica-plated in duplicate using a 96-pin replicator on LB plates to confirm viability and LB plates containing ciprofloxacin (40 nM) to confirm ciprofloxacin resistance. Ciprofloxacin-resistant clones that were isolated in the presence 4,4-Fe-PcTs were replica plated on LB and LB containing 4,4-Fe-PcTs (25 μM) and ciprofloxacin (40 nM). Clones that were resistant before ciprofloxacin exposure were defined as clones that formed colonies on the ciprofloxacin-containing media in the same number of days in the reconstruction assay as in the original resistance assay. Clones that mutated after exposure to ciprofloxacin were defined as clones that formed colonies earlier than in the original resistance assay [1].
The rate of ciprofloxacin resistance was defined as the number of ciprofloxacin-resistant mutants per viable cell that evolve as a function of time. […]
Description for DltA: DltA catalyzes the breakdown of ATP into AMP and pyrophosphate, which is further broken down by yeast pyrophosphatase into phosphate for quantification. Results are the average of two independent experiments where the deviation was less than 10%.

Consider “copper phthalocyanine-3,4′,4″,4′″-tetrasulfonic acid tetrasodium salt [3,4-Cu-PcTs]”, for which, on DltA, the “specificity of ATPase inhibition (DltA control)” value is “specific for inhibiting RecA ATPase activity”. Besides, the “potentiation of ciprofloxacin activity” value in the assay on E. coli strain ATCC25922 (ciprofloxacin 40 nM) is reported as “potentiated the activity of ciprofloxacin”. In addition, the “colony forming units (CFUs)” value in the assay on E. coli strain ATCC25922 (co-treated with ciprofloxacin 40 nM and compound at concentrations above 25 μM) is recorded as “no colony forming units (CFUs) were observed”. For the same compound, in the assay with E. coli strain ATCC25922 (compound 25 μM plus ciprofloxacin 40 nM, 24 hours), the CFUs entry is recorded as “no CFUs were observed”. Further, on EcRecA [1], the “inhibition of RecA dsDNA-binding activity” value is “in the micromolar range”. Besides, on EcRecA [2], the “inhibition of DNA strand-exchange” value is listed as “inhibited”. At EcRecA / EcLexA, the “inhibition of LexA cleavage” value is “inhibited”. At RecA [3] (3,4-Cu-PcTs 50 μM, RecA 5 μM), the “effect on molecular weight (oligomeric state) of RecA complex” value is reported as “reduced the molecular weight of the RecA complex to a size consistent to the RecA ring-shaped hexamer storage complex”. Further, on RecA [3] (pre-incubation with 3,4-Cu-PcTs 50 μM, RecA alone eluted near the void volume), the “elution size of 3,4-Cu-PcTs/RecA complex” value is recorded as about 200 KD. For the same compound, the “inhibition of EcRecA ATPase activity” value at EcRecA [4] is recorded as “high degree of inhibition”. Besides, the “inhibition of RecA ssDNA-binding activity” value on EcRecA [5] is “in the micromolar range”. Also, the “effect on RecA filament formation” value on RecA [6] is given as “inhibited”.

For `O=C(O)c1cn(C2CC2)c2cc(N3CCNCC3)c(F)cc2c1=O` [ciprofloxacin, ciprofloxacin hydrochloride, reference compound], the “sensitivity of ATCC27853 to ciprofloxacin compared with gram-positive strains” value in assay [7] is on record as “less sensitive to ciprofloxacin than the two gram-positive strains”. For the same compound, the “ciprofloxacin-resistant cells over time” value in the assay with ATCC25922 E. coli (cells treated with only ciprofloxacin) is given as “spike in ciprofloxacin-resistant cells at day 5”. The “ciprofloxacin-resistant colonies caused by pre-existing mutations” value with ATCC25922 E. coli (ciprofloxacin-alone (40 nM)) is listed as 29%. Also, the “ciprofloxacin-resistant cells in thigh” value in the assay on ATCC25922 cells is “Approximately 50,000 cells”.

For `CN[C@@H]1[C@H](O)[C@H](NC)[C@H]2O[C@@]3(O)C(=O)C[C@@H](C)O[C@H]3O[C@@H]2[C@H]1O` [spectinomycin, spectinomycin dihydrochloride], the “induction of SOS-GFP reporter by antibiotic alone” value (“induction of SOS-GFP reporter” below) in assay [8] was “only very low levels of GFP expression”.

With metatungstate (W12O40^6−), the “MvRadA ATPase, DNA-binding, and DNA strand-exchange activities” value on MvRadA is reported as “inhibited”. Besides, the “inhibition of RecA activity within E. coli cells” value on RecA [9] was “unable to inhibit”.

“zinc (II) phthalocyanine tetrasulfonic acid [Zn-PcTs]”: in the assay with E. coli strain ATCC25922 (24 hours), the “decrease in CFUs relative to ciprofloxacin treatment alone” value is about 100 fold.

In the case of “copper phthalocyanine-tetrasulfonic acid [Cu-PcTs]”, the “decrease in CFUs relative to ciprofloxacin treatment alone” value in the assay with E. coli strain ATCC25922 (24 hours) is about 100 fold.

Consider “phthalocyanine tetrasulfonic acid [H-PcTs]”, for which, in the assay with E. coli strain ATCC25922 (24 hours), the “decrease in CFUs relative to ciprofloxacin treatment alone” value is on record as about 100 fold.

With `CO[C@H]1/C=C/O[C@@]2(C)Oc3c(C)c(O)c4c(O)c(cc(O)c4c3C2=O)NC(=O)/C(C)=C\C=C\[C@H](C)[C@H](O)[C@@H](C)[C@@H](O)[C@@H](C)[C@H](OC(C)=O)[C@@H]1C` [Rifamycin, rifamycin], the “SOS response and killing of bacteria” value in assay [10] (bacteria with RecA) was “activates the SOS response, but does not kill bacteria”. Further, the “activity in ΔrecA bacterial strain” value in assay [10] (ΔrecA bacterial strain) is “shows bactericidal activity”.

For the compound “aluminum (III) phthalocyanine chloride tetrasulfonic acid [Al-PcTs]”, the “decrease in CFUs relative to ciprofloxacin treatment alone” value with E. coli strain ATCC25922 (24 hours) is on record as about 100 fold.

As for `NC[C@H]1O[C@H](O[C@H]2[C@H](O)[C@@H](O[C@H]3O[C@H](CO)[C@@H](O)[C@H](N)[C@H]3O)[C@H](N)C[C@@H]2N)[C@H](O)[C@@H](O)[C@@H]1O` [Kanamycin, kanamycin monosulfate], in assay [8], the “induction of SOS-GFP reporter” value was “did not induce the SOS-GFP reporter”.

“nickel (II) phthalocyanine-tetrasulfonic acid [Ni-PcTs]”: the “decrease in CFUs relative to ciprofloxacin treatment alone” value in the assay on E. coli strain ATCC25922 (24 hours) was about 100 fold.

With `O=C(N[C@H](CO)[C@H](O)c1ccc([N+](=O)[O-])cc1)C(Cl)Cl` [chloramphenicol], the “induction of SOS-GFP reporter” value in [8] is recorded as “only very low levels of GFP expression”.
